# Results taken from patent US20160129122A1, “FATTY ACID ANTIVIRAL CONJUGATES AND THEIR USES” (Catabasis Pharmaceuticals, Inc., priority 2011, published 2016).
# Read-outs that look alike come from different tables or passages of the source.
# Experiments:
# HIV-1IIIB strain = test: HIV-1 cytoprotection assay (CEM-SS cells, MTS dye reduction); format: cell-based
# NF-κB = NF-κB luciferase reporter assay in LPS-stimulated RAW 264.7 macrophages; format: cell-based; details: Mus musculus
# Description: RAW 264.7 cells stably expressing a 3×NFkB response element-drive luciferase reporter were seeded into 96 well plates in sera-free medium (Optimem) 18 hours prior to compound application. Compounds of the invention were prepared by first making 100 mM stock solutions in EtOH. […] Cells were then stimulated with 200 ng/ml LPS or vehicle control for 3 hours in the presence of the compounds of the invention. A set of six vehicles was left unstimulated with LPS in order to measure the assay floor. AlamarBlue viability dye (Invitrogen) was added to cells simultaneously with the delivery of LPS (final AlamarBlue concentration of 10%). After the 3 h incubation period with LPS, cell viability was measured by reading fluorescence (excitation 550 nm, emission 595 nm) with a Perkin Elmer Victor V plate reader. Then cell media was aspirated from each well. Luciferase signal was then developed by addition of the Britelite Plus reagent (Perkin Elmer). Luciferase activity was measured with the Perkin Elmer Victor V plate reader. NF-κB activity was expressed as a percent of the vehicle control wells (stimulated with LPS). Compounds were tested at 6 dose point titrations in triplicate to determine IC50 values.
# [1] = Human immunodeficiency virus 1, 144 h, CEM-SS cells, HIV-1 IIIB strain, 6 days incubation, cytoprotection by MTS, read-out: IC50 HIV-1IIIB strain
# [2] = RAW264.7, read-out: NF-kB inhibitory activity IC50 μM
# [3] = Human immunodeficiency virus 1, IIIB, CEM-SS, 144 h, read-out: IC50 HIV-1IIIB strain (nM)
# [4] = RAW264.7, RAW 264.7 cells with 3×NFkB response element luciferase reporter, 2 h pretreatment, 200 ng/ml LPS for 3 h, read-out: NF-kB inhibitory activity IC50
IC50 (HIV-1IIIB strain; [1]) [nM],IC50 (NF-κB; [4]) [µM],Structure (SMILES),IC50 (NF-κB; [2]) [µM],IC50 (HIV-1IIIB strain; [3]) [nM]
< 100,,"CC/C=C\C/C=C\C/C=C\C/C=C\C/C=C\CCCC(=O)Nc1ccc(S(=O)(=O)N(CC(C)C)C[C@@H](O)[C@H](Cc2ccccc2)NC(=O)O[C@H]2CO[C@H]3OCC[C@H]32)cc1 [VII-2, (3R,3aS,6aR)-hexahydrofuro[2,3-b]furan-3-yl((2S,3R)-3-hydroxy-4-(4-((5Z,8Z,11Z,14Z,17Z)-icosa-5,8,11,14,17-pentaenamido)-N-isobutylphenylsulfonamido)-1-phenylbutan-2-yl)carbamate]",,
,,"CC(C)CN(C[C@@H](O)[C@H](Cc1ccccc1)NC(=O)O[C@H]1CO[C@H]2OCC[C@H]21)S(=O)(=O)c1ccc(N)cc1 [Darunavir, darunavir, reference compound]",> 200,
,,"CC/C=C\C/C=C\C/C=C\C/C=C\C/C=C\C/C=C\CCC(=O)NCCNC(=O)OC[C@@H]1OC(n2ccc(N)nc2=O)CS1 (stereo partly drawn) [Compound V-21, ((2R,5S)-5-(4-amino-2-oxopyrimidin-1(2H)-yl)-1,3-oxathiolan-2-yl)methyl(2-((4Z,7Z,10Z,13Z,16Z,19Z)-docosa-4,7,10,13,16,19-hexaenamido)ethyl)carbamate]",50 to 200,< 100
,,CC/C=C\C/C=C\C/C=C\C/C=C\C/C=C\CCCC(=O)NCCNP(=O)(OC)OC[C@H]1OC(n2cc(C)c(=O)[nH]c2=O)C[C@@H]1N=[N+]=[N-] (stereo partly shown) [II-30],< 50,> 100
,50 to 200,CC/C=C\C/C=C\C/C=C\C/C=C\C/C=C\C/C=C\CCC(=O)NCCOCCNC(=O)OC[C@H]1OC(n2cc(C)c(=O)[nH]c2=O)C[C@@H]1N=[N+]=[N-] (stereo partly shown) [Compound V-8],,
,,"CC/C=C\C/C=C\C/C=C\C/C=C\C/C=C\C/C=C\CCC(=O)Nc1ccc(S(=O)(=O)N(CC(C)C)C[C@@H](O)[C@H](Cc2ccccc2)NC(=O)O[C@H]2CO[C@H]3OCC[C@H]32)cc1 [VII-1, (3R,3aS,6aR)-hexahydrofuro[2,3-b]furan-3-yl((2S,3R)-4-(4-((4Z,7Z,10Z,13Z,16Z,19Z)-docosa-4,7,10,13,16,19-hexaenamido)-N-isobutylphenylsulfonamido)-3-hydroxy-1-phenylbutan-2-yl)carbamate]",50 to 200,< 100
< 100,> 200,CC/C=C\C/C=C\C/C=C\C/C=C\C/C=C\C/C=C\CCC(=O)Nc1ccn(C2CS[C@H](CO)O2)c(=O)n1 (stereo partly shown) [Compound V-18],,
,,CC/C=C\C/C=C\C/C=C\C/C=C\C/C=C\C/C=C\CCC(=O)NCCNP(=O)(OC[C@H]1OC(n2cc(C)c(=O)[nH]c2=O)C[C@@H]1N=[N+]=[N-])Oc1ccccc1 (stereo partly shown) [II-25],< 50,< 100
> 100,< 50,CC/C=C\C/C=C\C/C=C\C/C=C\C/C=C\C/C=C\CCC(=O)NCCNC(=O)OC[C@H]1OC(n2cc(C)c(=O)[nH]c2=O)C[C@@H]1N=[N+]=[N-] (stereo partly shown) [Compound V-5],,
,,"CC/C=C\C/C=C\C/C=C\C/C=C\C/C=C\CCCC(=O)NCCNP(=O)(OC)OC[C@@H]1O[C@H](n2ccc(N)nc2=O)CS1 (stereo partly drawn) [II-70, ((2R,5S)-5-(4-amino-2-oxopyrimidin-1(2H)-yl)-1,3-oxathiolan-2-yl)methyl methyl (2-((5Z,8Z,11Z,14Z,17Z)-icosa-5,8,11,14,17-pentaenamido)ethyl)phosphoramidate]",50 to 200,
,,"CC/C=C\C/C=C\C/C=C\C/C=C\C/C=C\C/C=C\CCC(=O)NCCNP(=O)(OC[C@@H]1O[C@H](n2ccc(N)nc2=O)CS1)Oc1ccccc1 (stereo partly drawn) [II-67, ((2R,5S)-5-(4-amino-2-oxopyrimidin-1(2H)-yl)-1,3-oxathiolan-2-yl)methyl phenyl (2-((4Z,7Z,10Z,13Z,16Z,19Z)-docosa-4,7,10,13,16,19-hexaenamido)ethyl)phosphoramidate]",< 50,< 100
,,"C=C1[C@H](COP(=O)(NCCNC(=O)CCC/C=C\C/C=C\C/C=C\C/C=C\C/C=C\CC)OC)[C@@H](O)C[C@@H]1n1cnc2c(=O)nc(N)[nH]c21 (stereo partly drawn) [II-48, ((1R,3S,5S)-3-(2-amino-6-oxo-3H-purin-9(6H)-yl)-5-hydroxy-2-methylenecyclopentyl)methyl methyl (2-((5Z,8Z,11Z,14Z,17Z)-icosa-5,8,11,14,17-pentaenamido)ethyl)phosphoramidate]",50 to 200,
